Laboratory results: publication PMC5761724 (Journal of medicinal chemistry, 2017)

How the values were obtained:
[1] = target: BRISC complex (Homo sapiens, UniProt P46736); assay: BRISC activity assay; assay type: biochemical; conditions: Figure S1
[2] = target: Rpn11 (Homo sapiens, UniProt O00487); assay: Rpn11 fluorescence polarization deubiquitination assay; assay type: biochemical
[3] = Cytotoxicity assay; assay type: cell-based; conditions: human, HCT 116 cells
[4] = system: Ub^G76V-GFP Hela cells (proteasome activity); assay: Ub^G76V-GFP degradation assay; assay type: cell-based; conditions: Homo sapiens, read-out: Ub^G76VGFP Hela Cell IC50
[5] = target: Csn5 (Homo sapiens, UniProt Q92905); assay: CSN5 activity assay; assay type: biochemical
[6] = target: T1, AMSH (Homo sapiens, UniProt O95630); assay: AMSH activity assay; assay type: biochemical
T1 sequence (O95630 1-424): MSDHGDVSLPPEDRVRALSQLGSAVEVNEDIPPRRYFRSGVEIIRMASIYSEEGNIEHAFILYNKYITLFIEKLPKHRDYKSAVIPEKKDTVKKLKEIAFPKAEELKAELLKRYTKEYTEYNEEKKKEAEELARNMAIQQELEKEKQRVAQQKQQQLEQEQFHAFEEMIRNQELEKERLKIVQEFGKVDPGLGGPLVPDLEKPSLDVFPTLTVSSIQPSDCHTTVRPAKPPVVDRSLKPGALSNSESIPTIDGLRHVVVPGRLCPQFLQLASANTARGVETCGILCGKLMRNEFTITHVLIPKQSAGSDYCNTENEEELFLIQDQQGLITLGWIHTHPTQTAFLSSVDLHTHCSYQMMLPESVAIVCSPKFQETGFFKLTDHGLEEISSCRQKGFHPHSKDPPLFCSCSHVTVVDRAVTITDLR

[7] = HCT 116 Cytotoxicity IC50, Table 2

For Sc1cccc2cccnc12 [8TQ, 8-thioquinoline], the “inhibition of BRISC” value [1] was “significant inhibition”, the “inhibition of Rpn11 in MBP library screen” value ([2]; fragment concentration of 200 μM) was “essentially complete inhibition” and the ligand efficiency ([2]; from Rpn11 IC50) was 0.69. For the same compound, the IC50 at 72 h ([3]; HCT 116 Cytotoxicity, Table 1) was 1.3 µM.

Sc1cccc2ccccc12 [Compound 2] showed an IC50 at 72 h ([3]; HCT 116 Cytotoxicity, Table 1) of over 100 µM.

Compound Cc1cccc2cccnc12 [Compound 3] has an IC50 at 72 h ([3]; HCT 116 Cytotoxicity, Table 1) of over 100 µM.

For CSc1cccc2cccnc12 [Compound 6, 8-(Methylthio)quinoline], the IC50 at 72 h ([3]; HCT 116 Cytotoxicity, Table 1) was over 100 µM.

In the case of Sc1cccc2ncccc12 [Compound 7c, Quinoline-5-thiol], the IC50 at 72 h ([3]; HCT 116 Cytotoxicity, Table 1) is reported as over 100 µM.

In the case of Sc1ccnc2cccnc12 [Compound 8e, 1,5-Naphthyridine-4-thiol], the “fold weaker Rpn11 activity compared to 8TQ” value [2] is reported as ~ 6 fold.

With Cc1ccc2cccc(S)c2n1 [Compound 9c, 2-Methylquinoline-8-thiol] the IC50 at 72 h [3, 7] was over 50 µM.

In the case of Cc1ccnc2c(S)cccc12 [Compound 11c, 4-Methylquinoline-8-thiol], the IC50 at 72 h [3, 7] is reported as over 10 µM.

Work on O=C(NCCc1nccs1)c1cnc2c(O)cccc2c1 [Compound 47, 8-Hydroxy-N-(2-(thiazol-2-yl)ethyl)quinoline-3-carboxamide] yielded an IC50 [4] of over 100 µM.

With CSc1cccc2cc(C(=O)NCCc3nccs3)cnc12 [Compound 48, 8-(Methylthio)-N-(2-(thiazol-2-yl)ethyl)quinoline-3-carboxamide] the IC50 [4] was over 100 µM.

O=C(NCCc1nccs1)c1cnc2c(S)ccnc2c1 [Compound 50f, 8-Mercapto-N-(2-(thiazol-2-yl)ethyl)-1,5-naphthyridine-3-carboxamide] showed an IC50 [5] of over 100 µM, an IC50 [6] of over 100 µM and an IC50 ([2]; Rpn11 IC50) of about 82 µM. For the same compound, the IC50 ([2]; Rpn11 IC50, Table 5, control compounds) was 82 ± 14 µM and the IC50 [4] was over 100 µM.
